Some test systems named below: SK-MEL-5 melanoma; RPMI-8226 leukemia; RXF 393 renal; K-562 leukemia; HCC-2998 colon; 786-0 renal; HS 578T breast; ACHN renal; EKVX NSCLC; SK-MEL-2 melanoma.
Holding throughout (test): NCI tumour cell line growth inhibition, 48 h

Each structure is given as a SMILES string.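 Protocol summary: plate cells (96-well), add compound at 5 concentrations, incubate 48 h, interpolate endpoints linearly. GI50: concentration for 50% inhibition of growth. TGI is the concentration that stops growth completely.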

Take `O=C(Nc1nc(-c2ccccc2)cs1)c1cc(O)c(O)c(O)c1`: the GI50 in the assay with SK-MEL-5 melanoma was 3.6 µM; in the assay with RPMI-8226 leukemia it was 2.99 µM; in the assay on RXF 393 renal, 3.55 µM; in the assay on K-562 leukemia it was 2.72 µM; in the assay on HCC-2998 colon, 10.1 µM; in the assay with 786-0 renal it was 3.38 µM. Also, the GI50 is 3.37 µM with HS 578T breast and 2.47 µM in the assay with ACHN renal. For the same molecule, the TGI in the assay with SK-MEL-5 melanoma was 20.7 µM; in the assay on RPMI-8226 leukemia it was 22.1 µM; with RXF 393 renal it was 19.7 µM; in the assay with K-562 leukemia, above 100 µM; in the assay on HCC-2998 colon, 36.3 µM; with 786-0 renal it was 10.6 µM. Also, the TGI with HS 578T breast worked out at 83.8 µM; in the assay with ACHN renal it was 56.3 µM.
Turning to `CNC1=CC(=O)C2=C(C1=O)C1C3=C(C(=O)C(Br)=C(OC)C3=O)C2c2ccccc21` (centres undefined), the GI50 with EKVX NSCLC was 1.53 µM; with SK-MEL-5 melanoma, 5.46 µM; in the assay on RPMI-8226 leukemia it was 2.27 µM; in the assay on RXF 393 renal, 1.49 µM; in the assay with K-562 leukemia it was 1.35 µM; in the assay with 786-0 renal, 1.38 µM. The GI50 in the assay with SK-MEL-2 melanoma is 3.03 µM; with HS 578T breast, 2.72 µM; in the assay with ACHN renal, 1.74 µM. Further, the TGI in the assay on EKVX NSCLC is 3.31 µM; in the assay on SK-MEL-5 melanoma, 16.9 µM; with RPMI-8226 leukemia, above 50 µM; with RXF 393 renal it was 2.99 µM; in the assay on K-562 leukemia it was 3.01 µM; in the assay with 786-0 renal, 3.5 µM. Also, the TGI worked out at 14.1 µM in the assay on SK-MEL-2 melanoma, 22.1 µM in the assay with HS 578T breast and 6.21 µM in the assay on ACHN renal.
In the case of `CCCCCCCC(=O)NS(=O)(=O)c1ccccc1`, the TGI in the assay with EKVX NSCLC, in the assay on SK-MEL-5 melanoma, in the assay on RPMI-8226 leukemia, in the assay with K-562 leukemia, in the assay with HCC-2998 colon and in the assay with 786-0 renal was above 100 µM in each case. For the same molecule, the TGI in the assay on SK-MEL-2 melanoma, in the assay with HS 578T breast and with ACHN renal was above 100 µM throughout.
Consider `N=C1N=C(N)S/C1=C\c1ccc2ncccc2c1`, for which the GI50 with SK-MEL-5 melanoma, with RPMI-8226 leukemia, in the assay on RXF 393 renal, in the assay with K-562 leukemia, with HCC-2998 colon and with 786-0 renal was above 25 µM throughout. The results for the GI50 in the assay with SK-MEL-2 melanoma, in the assay with HS 578T breast and in the assay with ACHN renal were above 25 µM, above 19.1 µM and above 25 µM, respectively. The TGI in the assay on SK-MEL-5 melanoma, in the assay on RPMI-8226 leukemia, in the assay with RXF 393 renal, in the assay with K-562 leukemia, with HCC-2998 colon and in the assay with 786-0 renal was above 25 µM each time. The TGI with SK-MEL-2 melanoma, in the assay on HS 578T breast and with ACHN renal was above 25 µM in each case.
With `O=C(Nc1cc(C(F)(F)F)cc(C(F)(F)F)c1)Nc1ccc(OCc2nnc(-c3ccc(Cl)cc3)o2)c(F)c1`, the GI50 in the assay on SK-MEL-5 melanoma is 1.51 µM; in the assay with RPMI-8226 leukemia, 1.02 µM; with K-562 leukemia it was 2.37 µM; in the assay with HCC-2998 colon, 3.12 µM; in the assay with 786-0 renal, 2 µM; in the assay with SK-MEL-2 melanoma, 2.73 µM. Further, the GI50 with HS 578T breast is 2.38 µM; in the assay with ACHN renal it was 0.873 µM. Moreover, the TGI in the assay with SK-MEL-5 melanoma was 2.96 µM; in the assay with RPMI-8226 leukemia, 5.3 µM; in the assay with K-562 leukemia it was 24.3 µM; with HCC-2998 colon, 12 µM; with 786-0 renal, 4.68 µM; in the assay on SK-MEL-2 melanoma, 6.26 µM. Also, the values for the TGI in the assay with HS 578T breast and in the assay with ACHN renal were 12.1 µM and 9.2 µM, respectively.
As to `COc1ccc(C2CC(c3cccc(OC)c3)=NN2C(=O)c2cc(OC)c(OC)c(OC)c2)cc1` (centres undefined), the GI50 in the assay with EKVX NSCLC was 3.35 µM; with SK-MEL-5 melanoma it was 0.534 µM; in the assay on RPMI-8226 leukemia, 1.05 µM; with K-562 leukemia it was 0.431 µM; with HCC-2998 colon, 4.27 µM; with 786-0 renal, 2.25 µM. In addition, the GI50 was 10.3 µM in the assay on SK-MEL-2 melanoma, 1.21 µM in the assay with HS 578T breast and 5.54 µM in the assay with ACHN renal. In addition, the TGI was above 100 µM with EKVX NSCLC; above 40.4 µM in the assay on SK-MEL-5 melanoma; 4.35 µM with RPMI-8226 leukemia; above 20.5 µM in the assay with K-562 leukemia; above 100 µM in the assay with HCC-2998 colon; above 100 µM in the assay on 786-0 renal. The figures for the TGI in the assay on SK-MEL-2 melanoma, in the assay with HS 578T breast and with ACHN renal were above 100 µM, 5.37 µM and above 100 µM, respectively.
Take `Cc1ccc(S(=O)(=O)NNC(C[N+](=O)[O-])c2ccccc2)cc1` (centres undefined): the TGI in the assay on EKVX NSCLC was above 100 µM; in the assay with SK-MEL-5 melanoma, 36.7 µM; with RPMI-8226 leukemia it was above 100 µM; with RXF 393 renal, 11.2 µM; with K-562 leukemia, above 100 µM; in the assay with 786-0 renal it was above 100 µM. For the same molecule, the values for the TGI with SK-MEL-2 melanoma, with HS 578T breast and with ACHN renal were 75 µM, above 100 µM and 40.9 µM, respectively.
As for `CN(C)CCCN1c2ccc(O)cc2Sc2ccc(Cl)cc21`, the TGI in the assay on EKVX NSCLC was 35.9 µM; with SK-MEL-5 melanoma, 28.2 µM; in the assay on RPMI-8226 leukemia, 21.9 µM; in the assay with RXF 393 renal it was 32.6 µM; in the assay on K-562 leukemia, 16.8 µM; with 786-0 renal, 24 µM. Moreover, the TGI in the assay with SK-MEL-2 melanoma was found to be 19 µM; with HS 578T breast, 23.1 µM; in the assay with ACHN renal, 28.1 µM.
Take `Clc1ccc(-c2nc(C(Cl)Cl)nc3cc(-c4ccccc4)nn23)cc1`: the GI50 in the assay with SK-MEL-5 melanoma is above 50 µM; in the assay with RPMI-8226 leukemia, 2.54 µM; with RXF 393 renal, 0.813 µM; with K-562 leukemia it was 1.81 µM; in the assay with HCC-2998 colon it was 0.741 µM; in the assay with 786-0 renal, above 50 µM. Further, the GI50 in the assay on SK-MEL-2 melanoma was above 50 µM; with HS 578T breast, 1.38 µM. The TGI in the assay on SK-MEL-5 melanoma was above 50 µM; in the assay on RPMI-8226 leukemia, above 50 µM; in the assay with RXF 393 renal it was 1.87 µM; with K-562 leukemia it was above 50 µM; with HCC-2998 colon, 1.42 µM; in the assay with 786-0 renal, above 50 µM. The TGI with SK-MEL-2 melanoma and in the assay with HS 578T breast was above 50 µM throughout.

Values taken from PubChem BioAssay (NCI).
